Here are results for 33 molecules from ChEMBL document CHEMBL1141544, “Synthesis of N-pyrimidinyl-2-phenoxyacetamides as adenosine A2A receptor antagonists” (Bioorg Med Chem Lett, 2008).

The term Ki denotes the equilibrium dissociation constant of an inhibitor or competing ligand from its target. High values mean a looser hold on the target, low ones a stronger hold on the target. The half-life is how long it takes for the measured level to halve. High values mean slow loss, low ones fast loss. A word on the IC50: it is the concentration needed to halve the response being measured. Low readings indicate greater potency in that assay, high ones weaker potency in that assay. Broadly, the bioavailability is the share of a dose that reaches the circulation, judged against a reference dose that is usually intravenous. A word on the Vd: it is the apparent volume that relates the amount in the body to the concentration in plasma or blood. As a reminder, the clearance is the rate of elimination divided by the concentration. A low value points to inefficient removal. In general, solubility refers to how much of the substance goes into solution per volume.

≈ marks a conversion by molar mass, not a printed value. Bounds are passed on as bounds.

The species named for one data set is Homo sapiens. Description: Selectivity of Ki for human adenosine A2A receptor over Ki for human adenosine A1 receptor.
Data set [1] concerns the target T1, Adenosine receptor A1 (Homo sapiens, UniProt P30542).
T1 sequence (P30542 whole entry): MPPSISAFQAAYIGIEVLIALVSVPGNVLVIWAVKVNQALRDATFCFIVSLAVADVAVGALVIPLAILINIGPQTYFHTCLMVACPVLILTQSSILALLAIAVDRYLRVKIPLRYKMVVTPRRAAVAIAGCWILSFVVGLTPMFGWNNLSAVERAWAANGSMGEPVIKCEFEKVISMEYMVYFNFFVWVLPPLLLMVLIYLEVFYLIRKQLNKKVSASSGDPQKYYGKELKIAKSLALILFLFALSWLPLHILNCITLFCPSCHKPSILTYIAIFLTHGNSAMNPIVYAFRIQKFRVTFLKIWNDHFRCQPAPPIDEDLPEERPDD
Description: Binding affinity at adenosine A1 receptor.

In data set [2] the target is T2, Adenosine receptor A2a (Homo sapiens, UniProt P29274). Put plainly: Binding affinity at adenosine A2A receptor.
T2 sequence (P29274 whole entry): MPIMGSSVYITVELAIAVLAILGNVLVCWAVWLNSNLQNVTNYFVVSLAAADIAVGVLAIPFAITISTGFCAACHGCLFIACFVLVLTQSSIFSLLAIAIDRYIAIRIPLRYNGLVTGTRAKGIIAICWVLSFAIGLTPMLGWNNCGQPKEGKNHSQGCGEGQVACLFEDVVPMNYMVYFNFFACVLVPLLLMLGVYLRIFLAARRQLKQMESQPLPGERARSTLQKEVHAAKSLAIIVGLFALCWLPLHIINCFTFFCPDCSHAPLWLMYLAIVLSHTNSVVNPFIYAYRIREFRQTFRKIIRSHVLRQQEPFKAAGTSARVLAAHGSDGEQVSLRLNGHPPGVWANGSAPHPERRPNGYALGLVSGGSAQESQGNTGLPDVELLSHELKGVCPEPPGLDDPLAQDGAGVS
Data set [3] addresses T1, Adenosine receptor A1. Description: Displacement of [3H]DPCPX from human adenosine A1 receptor expressed in HEK293 cells. It is filed as cell-based. For orientation: In a radioligand displacement assay an active substance lowers the binding of a labelled ligand.
Data set [4] addresses T2, Adenosine receptor A2a. Put plainly: Displacement of [3H]ZM-241385 from human adenosine A2A receptor expressed in HEK293 cells. It is filed as cell-based.
A short description of data set [5]: Half life in rat. It is filed as ADME, organism-based. To be noted: in vivo.
The target of a further data set is Cytochrome P450 2D6 (Homo sapiens, UniProt P10635). Put plainly: Inhibition of CYP2D6. In kind it is ADME.
Cytochrome P450 2D6, sequence (P10635 whole entry): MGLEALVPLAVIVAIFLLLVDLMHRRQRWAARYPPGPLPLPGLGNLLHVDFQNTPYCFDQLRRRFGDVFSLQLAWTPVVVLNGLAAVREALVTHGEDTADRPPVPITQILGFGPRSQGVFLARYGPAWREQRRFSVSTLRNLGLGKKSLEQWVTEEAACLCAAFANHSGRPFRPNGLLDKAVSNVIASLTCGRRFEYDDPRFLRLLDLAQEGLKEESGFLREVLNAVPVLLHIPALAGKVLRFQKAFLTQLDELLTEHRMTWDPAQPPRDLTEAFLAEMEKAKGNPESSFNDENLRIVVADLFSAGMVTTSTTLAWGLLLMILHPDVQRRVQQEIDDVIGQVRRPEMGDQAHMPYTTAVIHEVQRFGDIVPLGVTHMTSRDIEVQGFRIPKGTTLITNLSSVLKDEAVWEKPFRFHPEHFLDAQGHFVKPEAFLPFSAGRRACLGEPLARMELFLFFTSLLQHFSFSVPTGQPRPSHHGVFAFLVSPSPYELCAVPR
The nature of data set [6]: Oral bioavailability in rat. It is filed as ADME, organism-based. To be noted: in vivo.
Data set [7] is described as follows: Volume of distribution in rat. In kind it is ADME, organism-based. To be noted: in vivo.
Data set [8] can be described thus: Drug level in rat brain after 4 hrs. It is filed as ADME, tissue-based. To be noted: read-out: Drug uptake.
A further data set relates to Rattus norvegicus. Description: Inhibition of haloperidol-induced catalepsy in orally dosed rat. In kind it is functional. To be noted: po, read-out: MED.
For data set [9], the target named is Adenosine receptor A2a (Rattus norvegicus, UniProt P30543). Description: Inhibition of rat adenosine A2A receptor.
Adenosine receptor A2a (Rattus norvegicus, UniProt P30543), sequence (P30543 whole entry): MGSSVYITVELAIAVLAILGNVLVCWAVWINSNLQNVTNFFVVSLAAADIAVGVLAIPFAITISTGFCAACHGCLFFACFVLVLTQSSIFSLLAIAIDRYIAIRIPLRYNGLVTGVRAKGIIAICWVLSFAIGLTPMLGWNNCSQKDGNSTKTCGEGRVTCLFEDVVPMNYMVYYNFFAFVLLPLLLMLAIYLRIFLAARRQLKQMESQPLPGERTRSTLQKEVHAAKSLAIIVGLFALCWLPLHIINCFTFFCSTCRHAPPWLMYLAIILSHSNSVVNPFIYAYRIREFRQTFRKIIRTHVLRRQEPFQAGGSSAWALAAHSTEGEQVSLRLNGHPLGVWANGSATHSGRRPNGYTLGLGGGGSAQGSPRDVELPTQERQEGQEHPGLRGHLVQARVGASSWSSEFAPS
A further data set deals with Cytochrome P450 3A4 (Homo sapiens, UniProt P08684). Put plainly: Inhibition of CYP3A4. It is filed as ADME.
Cytochrome P450 3A4, sequence (P08684 whole entry): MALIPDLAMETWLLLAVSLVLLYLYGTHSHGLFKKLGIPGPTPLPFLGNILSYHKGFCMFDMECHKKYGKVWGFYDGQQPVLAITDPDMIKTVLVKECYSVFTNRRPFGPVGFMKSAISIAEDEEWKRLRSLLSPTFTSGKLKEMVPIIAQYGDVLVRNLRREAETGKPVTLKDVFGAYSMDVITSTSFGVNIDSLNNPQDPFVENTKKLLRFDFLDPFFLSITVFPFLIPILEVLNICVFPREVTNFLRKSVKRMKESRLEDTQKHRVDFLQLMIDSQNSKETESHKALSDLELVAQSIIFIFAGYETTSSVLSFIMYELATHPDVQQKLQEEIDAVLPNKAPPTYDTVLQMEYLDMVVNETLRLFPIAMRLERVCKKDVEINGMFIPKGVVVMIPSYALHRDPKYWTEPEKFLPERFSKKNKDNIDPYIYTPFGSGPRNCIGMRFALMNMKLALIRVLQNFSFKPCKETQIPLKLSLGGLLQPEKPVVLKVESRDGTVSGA
Data set [10] can be described thus: Plasma clearance in rat. In kind it is ADME, organism-based.
A short description of data set [11]: Solubility at pH 5. It is filed as physicochemical. To be noted: buffer.
Data set [12] deals with Voltage-gated inwardly rectifying potassium channel KCNH2 (Homo sapiens, UniProt Q12809). Put plainly: Binding affinity at human ERG.
Voltage-gated inwardly rectifying potassium channel KCNH2, sequence (Q12809 whole entry): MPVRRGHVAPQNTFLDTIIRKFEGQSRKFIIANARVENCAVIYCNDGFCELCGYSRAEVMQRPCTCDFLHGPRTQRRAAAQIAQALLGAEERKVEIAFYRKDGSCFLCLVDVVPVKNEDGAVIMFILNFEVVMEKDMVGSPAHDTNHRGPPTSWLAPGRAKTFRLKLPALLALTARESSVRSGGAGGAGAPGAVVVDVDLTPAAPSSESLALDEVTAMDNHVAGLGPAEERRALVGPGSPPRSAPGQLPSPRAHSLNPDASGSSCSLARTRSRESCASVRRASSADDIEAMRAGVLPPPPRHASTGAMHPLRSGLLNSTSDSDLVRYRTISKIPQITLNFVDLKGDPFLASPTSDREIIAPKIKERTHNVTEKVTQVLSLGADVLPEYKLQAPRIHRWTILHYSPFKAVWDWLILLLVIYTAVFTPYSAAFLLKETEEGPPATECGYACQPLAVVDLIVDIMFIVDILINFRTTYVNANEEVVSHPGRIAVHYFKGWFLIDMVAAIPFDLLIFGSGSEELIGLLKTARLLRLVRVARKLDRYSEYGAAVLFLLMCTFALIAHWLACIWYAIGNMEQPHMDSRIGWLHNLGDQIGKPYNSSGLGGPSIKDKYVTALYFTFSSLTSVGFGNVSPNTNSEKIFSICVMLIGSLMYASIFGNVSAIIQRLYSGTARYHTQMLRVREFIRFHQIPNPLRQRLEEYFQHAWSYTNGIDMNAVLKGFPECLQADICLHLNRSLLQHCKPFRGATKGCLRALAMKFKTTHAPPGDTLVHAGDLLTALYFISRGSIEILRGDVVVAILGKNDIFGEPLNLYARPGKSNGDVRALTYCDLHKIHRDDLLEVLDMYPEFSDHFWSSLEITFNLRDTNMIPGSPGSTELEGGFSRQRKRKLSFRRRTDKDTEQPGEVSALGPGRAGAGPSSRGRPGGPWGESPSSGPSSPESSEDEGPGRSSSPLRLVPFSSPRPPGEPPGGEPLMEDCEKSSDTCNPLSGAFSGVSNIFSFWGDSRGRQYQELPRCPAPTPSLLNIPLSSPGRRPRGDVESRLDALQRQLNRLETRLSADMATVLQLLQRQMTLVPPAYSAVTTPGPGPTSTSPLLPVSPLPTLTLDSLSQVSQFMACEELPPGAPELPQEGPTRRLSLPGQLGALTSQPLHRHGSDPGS

Turning to `Cc1ccc(-c2nc(NC(=O)CCc3ccccc3F)cc(-c3nccs3)n2)o1`, the Ratio Ki in the data set listed under Homo sapiens came out at 26. Also, the inhibition constant (Ki) on Adenosine receptor A1 [1] was 410 nM; at Adenosine receptor A2a [2] it was 16 nM.
As for `Cc1cc(C)n(-c2cc(NC(=O)COc3cccc(C#N)c3)nc(-c3ccc(C)o3)n2)n1`, the Ki on Adenosine receptor A1 [3] is 25000 nM; on Adenosine receptor A2a [4] it was greater than 10000 nM.
Regarding `CC(=O)Nc1cc(-n2cccn2)nc(-c2ccco2)n1`, the Ratio Ki in the data set filed under Homo sapiens amounted to 17. Further, the affinity at Adenosine receptor A2a [2] corresponds to a Ki of 0.6 nM.
For `Cc1cc(C)n(-c2cc(NC(=O)COc3cccc(CN4CCOCC4)c3)nc(-c3ccc(C)o3)n2)n1`, the inhibitory constant (Ki) came to 600 nM at Adenosine receptor A1 [3] and 1.2 nM at Adenosine receptor A2a [4]. In the data set filed under Homo sapiens, the Ratio Ki was found to be 500.
With `COc1cc(OCC(=O)Nc2cc(-n3nc(C)cc3C)nc(-c3ccc(C)o3)n2)ccc1CN(C)C`, the Ki at Adenosine receptor A1 [3] came to 150 nM; on Adenosine receptor A2a [4], 0.3 nM.
Take `Cc1cc(C)n(-c2cc(NC(=O)COc3cccc(CCN4CCOCC4)c3)nc(-c3ccc(C)o3)n2)n1`: the inhibitory constant (Ki) at Adenosine receptor A1 [3] was determined as 540 nM; on Adenosine receptor A2a [4] it was 2.3 nM.
As to `Cc1cc(C)n(-c2cc(NC(=O)COc3cccc(CN(C)C)c3)nc(-c3ccc(C)o3)n2)n1`, the Ki on Adenosine receptor A1 [3] was determined as 60 nM; at Adenosine receptor A2a [9], 9.4 nM; on Adenosine receptor A2a [4], 0.4 nM. In addition, the half-life in data set [5] was 48 min. The IC50 at Cytochrome P450 2D6 and at Cytochrome P450 3A4 was greater than 6000 nM each time. In [6], the bioavailability amounted to 19%. The molecule also had a distribution volume (Vd) in data set [7] of 20 L/kg. Also, the concentration at 4 h in data set [8] turned out to be 360 ng/g. Further, in the data set on Rattus norvegicus, the minimal effective dose stood at 10 mg/kg. The same molecule had a clearance in data set [10] of 330 mL/min/kg. The amount in solution in data set [11] (solubility) came to 210 µg/mL (≈ 456 µM).
On to `Cc1ccc(-c2nc(NC(=O)COc3ccc(F)cc3)cc(-c3nccs3)n2)o1`, for which the figures for the inhibition constant (Ki) on Adenosine receptor A1 [3] and on Adenosine receptor A2a [4] were 1300 nM and greater than 10000 nM, respectively.
In the case of `Cc1ccc(-c2nc(NC(=O)COc3ccccc3F)cc(-c3nccs3)n2)o1`, the Ki on Adenosine receptor A1 [3] is 650 nM; on Adenosine receptor A2a [4] it was 7.5 nM. Besides, the Ratio Ki in the data set listed under Homo sapiens is 87.
Turning to `O=C(COc1cccc(F)c1)Nc1cc(-c2nccs2)nc(-c2ccccn2)n1`, the Ki on Adenosine receptor A1 [3] was 180 nM; at Adenosine receptor A2a [4] it was 3.6 nM.
The like results for `Cc1ccc(-c2nc(NC(=O)COc3cccc(C#N)c3)cc(-c3nccs3)n2)o1` were, in that order, 4300 nM and 6.8 nM.
Regarding `CCN(C)Cc1cccc(OCC(=O)Nc2cc(-n3nc(C)cc3C)nc(-c3ccc(C)o3)n2)c1`, the Ki at Adenosine receptor A1 [3] was determined as 68 nM; at Adenosine receptor A2a [4], 0.3 nM; at Adenosine receptor A2a [2], 0.3 nM. Also, in the data set listed under Homo sapiens, the Ratio Ki came to 100.
`Cc1cc(C)n(-c2cc(NC(=O)COc3cc(F)cc(CN4CCCC4)c3)nc(-c3ccc(C)o3)n2)n1`: the inhibitory constant (Ki) stood at 120 nM at Adenosine receptor A1 [3] and 0.5 nM at Adenosine receptor A2a [4].
For `Cc1cc(C)n(-c2cc(NC(=O)COc3cccc(CCN(C)C)c3)nc(-c3ccc(C)o3)n2)n1` the same measures were 78 nM and 0.5 nM.
For `Cc1ccc(-c2nc(NC(=O)COc3cccc(Cl)c3)cc(-c3nccs3)n2)o1` the same measures were 1500 nM and 14 nM.
The like results for `Cc1ccc(OCC(=O)Nc2cc(-n3nc(C)cc3C)nc(-c3ccc(C)o3)n2)c(CN(C)C)c1` were, in that order, 270 nM and 1 nM.
On to `Cc1cc(C)n(-c2cc(NC(=O)COc3cccc(CN)c3)nc(-c3ccc(C)o3)n2)n1`, for which the Ki was 73 nM on Adenosine receptor A1 [3], 0.7 nM on Adenosine receptor A2a [4] and 0.7 nM at Adenosine receptor A2a [2]. The Ratio Ki in the data set filed under Homo sapiens came to 100.
In the case of `COc1ccc(OCC(=O)Nc2cc(-n3nc(C)cc3C)nc(-c3ccc(C)o3)n2)c(CN(C)C)c1`, the values for the inhibition constant Ki at Adenosine receptor A1 [3] and at Adenosine receptor A2a [4] were 200 nM and 0.9 nM, respectively. Also, on Cytochrome P450 3A4, the 50% inhibitory concentration (IC50) worked out at 1600 nM.
As to `Cc1ccc(-c2nc(NC(=O)COc3cccc(F)c3)cc(-c3nccs3)n2)o1`, the results for the inhibition constant Ki on Adenosine receptor A1 [3] and on Adenosine receptor A2a [4] were 2200 nM and 11 nM, respectively.
The like results for `Cc1cc(C)n(-c2cc(NC(=O)COc3cc(F)cc(CN4CCOCC4)c3)nc(-c3ccc(C)o3)n2)n1` were, in that order, 480 nM and 1.4 nM.
In the case of `Cc1cc(C)n(-c2cc(NC(=O)COc3cccc(F)c3)nc(-c3ccc(C)o3)n2)n1`, the inhibition constant Ki was determined as 9700 nM at Adenosine receptor A1 [3] and 3.7 nM at Adenosine receptor A2a [4]. Further, the Ratio Ki in the data set listed under Homo sapiens was 2600. For the same molecule, in [11], the concentration in solution (solubility) was 80 µg/mL (≈ 190 µM).
Consider `Cc1ccc(OCC(=O)Nc2cc(-c3nccs3)nc(-c3ccc(C)o3)n2)cc1`, for which the Ki at Adenosine receptor A1 [3] was determined as 2100 nM; on Adenosine receptor A2a [4], 36 nM.
For `Cc1ccc(-c2nc(NC(=O)COc3ccccc3)cc(-c3nccs3)n2)o1` the same measures were 1100 nM and 7.4 nM.
As to `Cc1cc(C)nc(OCC(=O)Nc2cc(-n3nc(C)cc3C)nc(-c3ccc(C)o3)n2)n1`, the Ki at Adenosine receptor A1 [3] came to 95 nM; at Adenosine receptor A2a [4], 3.7 nM.
For `COc1cc(CN(C)C)ccc1OCC(=O)Nc1cc(-n2nc(C)cc2C)nc(-c2ccc(C)o2)n1` the same measures were 100 nM and 0.2 nM.
With `CCNCc1cccc(OCC(=O)Nc2cc(-n3nc(C)cc3C)nc(-c3ccc(C)o3)n2)c1`, the Ki on Adenosine receptor A1 [3] was 68 nM; at Adenosine receptor A2a [4], 0.3 nM; at Adenosine receptor A2a [2], 0.3 nM. In the data set filed under Homo sapiens, the Ratio Ki came to 100.
As for `Cc1cc(C)n(-c2cc(NC(=O)COc3ccc(CN(C)C)cc3)nc(-c3ccc(C)o3)n2)n1`, the Ki on Adenosine receptor A1 [3] worked out at 120 nM; on Adenosine receptor A2a [4], 0.3 nM.
As to `Cc1cc(C)n(-c2cc(NC(=O)COc3ccccc3CN(C)C)nc(-c3ccc(C)o3)n2)n1`, the Ki on Adenosine receptor A1 [3] was found to be 270 nM; at Adenosine receptor A2a [4], 1 nM.
For `Cc1cc(C)n(-c2cc(NC(=O)COc3cc(F)cc(CN(C)C)c3)nc(-c3ccc(C)o3)n2)n1` the same measures were 140 nM and 0.5 nM.
For `COc1cccc(CN(C)C)c1OCC(=O)Nc1cc(-n2nc(C)cc2C)nc(-c2ccc(C)o2)n1` the same measures were 1400 nM and 5.7 nM.
Take `Cc1cc(C)n(-c2cc(NC(=O)COc3ccccc3CCN3CCOCC3)nc(-c3ccc(C)o3)n2)n1`: the Ki on Adenosine receptor A1 [3] was 1200 nM; in data set [12] it was 180 nM; on Adenosine receptor A2a [4], 1.2 nM.
As to `Cc1cc(OCC(=O)Nc2cc(-n3nc(C)cc3C)nc(-c3ccc(C)o3)n2)cc(C)n1`, the Ki on Adenosine receptor A1 [3] was found to be 740 nM; on Adenosine receptor A2a [4] it was 0.7 nM. Also, the IC50 on Cytochrome P450 2D6 was 50 nM; at Cytochrome P450 3A4, 1100 nM.
On to `N#Cc1cccc(OCC(=O)Nc2cc(-c3nccs3)nc(-c3ccccn3)n2)c1`, for which the figures for the Ki on Adenosine receptor A1 [3] and on Adenosine receptor A2a [4] were 87 nM and 1.8 nM, respectively.
